Laboratory results: US4181803A, “Propiophenone derivatives and preparation thereof” (Eisai Co., Ltd., priority 1973, dated 1980)

Legend:
[1] = test system: isolated smooth muscle preparations; test: Smooth muscle-relaxing activity on isolated smooth muscle preparations
Description: Additionally, anti-histamine, anti-acetylcholine, anti-serotonin and smooth muscle-relaxing activities of the compounds under test were examined on isolated smooth muscle preparations

[2] = test system: motor function and maintenance of righting reflex; test: animal or person; format: in vivo, male d,d-strain mice; details: Mus musculus, po, 1 h, read-out: Motor Ataxia, ED50
Description: (§1) Male d,d-strain mice weighing 18 to 22 grs. were used for the experiments.
(§2) Groups of each 10 mice were treated orally and intraperitoneally with a wide range of doses of the above-mentioned compounds or saline.
The numerals given in the following Table 1 indicate ED50 values (in mg/kg) which were calculated 60 minutes after the oral administration of the compounds under test.

mice = test: Acute toxicity (24-hour mortality); format: in vivo; details: oral, from Table 1
Description: as §1, §2
The mortality ensued during 24 hours after the oral administration was recorded to determine acute toxicity of the compound under test on the mice.

Compound	smooth muscle-relaxant activity (in words) [1]	ED50 [2] [mg/kg]	acute toxicity compared with Compound under control (in words) (mice)
CCc1ccc(C(=O)C(C)CN2CCCCC2)cc1.Cl (stereo not shown) [Compound A, 4'-ethyl-2-methyl-3-piperidino-propiophenone hydrochloride]	strong	640	slightly stronger
CCCc1ccc(C(=O)C(C)CN2CCCCC2)cc1.Cl (stereo not shown) [Compound B, 4'-n-propyl-2-methyl-3-piperidino-propiophenone hydrochloride]	strong	800	almost equivalent
CC(CN1CCCCC1)C(=O)c1ccc(C(C)C)cc1.Cl (stereo not shown) [Compound C, 4'-isopropyl-2-methyl-3-piperidino-propiophenone hydrochloride]	strong	84	–
Cc1ccc(C(=O)C(C)CN2CCCCC2)cc1.Cl (stereo not shown) [Compound for control, 2,4'-dimethyl-3-piperidino-propiophenone hydrochloride, reference compound]	weak	800	–
